# Laboratory results: patent publication US20090227619A1, “Harmine derivatives, intermediates used in their preparations, preparation processes and use therefo” (priority 2003, published 2009)
# Several values for one entry are separate records, joined by “and”; a condition that tells them apart may be missing. Equal entries are not always repeated. Where two headings read alike, the source gives them in different places.
# What was measured:
# Bel-7402 = experiment: In vitro cytotoxicity, IC50 by MTT method, Bel-7402; format: cell-based
# Procedure: (§1) Culture medium powder RPMI1640 was dissolved in a proper amount of tri-distilled water according to the instruction of the product. […] It was the basic culture solution. The complete culture solution was added with FBS having a final concentration of 10%, 100 U/ml penicillin and 100 µg/ml streptomycin. The solution was fully stirred by a magnetic blender, and the pH of the solution was adjusted to 6.8-7.0. The volume was kept constant. After being filtered and disinfected, the solution was kept into several containers which were sealed and stored at 4° C.
# (§2) The cells were placed in a culture dish followed by the addition of complete culture liquid RPMI1640 and then cultured in a incubator comprising 5% CO2 at 37° C. In the exponential growth phase, the cells grew vigorously. If the culture liquid became yellow, the liquid should be replaced instantly.
# (§3) The cells, at a concentration of 10^5/ml, were inoculated at a 96-pore culture plate. In each pore, 100 μl cells were inoculated. The cells were placed in a CO2 incubator until the cells were in the logarithmic growth phase. The samples to be tested were added according to the preset concentration gradient. For each gradient, the test was conducted at least three times. An equivalent amount of solvent for dissolving the samples was added in the control group. After 48 h of culture, each pore was added 20 μl MTT (5 mg/ml). The cells were cultured at 37° C. for 4 h. After the supernatant was carefully removed, 100 μl DMSO was added in each pore. The plate was agitated for about 10 minutes such that the precipitates were dissolved. After that, OD value was identified with a Microplate Reader at the wavelength of 490 nm. The survival rate of the cells at various concentrations was calculated according to the following formula:
# (§4) Survival rate %=average OD value of the sample group/average OD value of the control group×100%
# (§5) Plots of log survival rate of the cells vs. concentration of the medicament were constructed, and the IC50 value of each sample was calculated according to graphing methods.
# PLA-801 = experiment: In vitro cytotoxicity, IC50 by MTT method, PLA-801; format: cell-based
# Procedure: as §1, §2, §3, §4, §5
# NIH3T3 = experiment: In vitro cytotoxicity, IC50 by MTT method, NIH3T3; format: cell-based
# Procedure: as §1, §2, §3, §4, §5
# Hela = experiment: In vitro cytotoxicity, IC50 by MTT method, Hela; format: cell-based
# Procedure: as §1, §2, §3, §4, §5
# Lovo = experiment: In vitro cytotoxicity, IC50 by MTT method, Lovo; format: cell-based
# Procedure: as §1, §2, §3, §4, §5
# BGC-823 = experiment: In vitro cytotoxicity, IC50 by MTT method, BGC-823; format: cell-based
# Procedure: as §1, §2, §3, §4, §5
# HepG2 = experiment: In vitro cytotoxicity, IC50 by MTT method, HepG2; format: cell-based, human
# Procedure: as §1, §2, §3, §4, §5
# S180 sarcoma = conditions: S180 sarcoma, Dosage 30 (mg/ml), ip × 7qd, listed as CTX
# Lewis lung cancer = conditions: Lewis lung cancer, listed as CTX;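 note: mice implanted subcutaneously in the axilla with Lewis lung tumor cells, treated starting the following day, killed roughly three weeks after implantation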
# [1] = Bel7402 cell strain, read-out: IC50 Bel7402
# [2] = PLA-801 cell strain, read-out: IC50 PLA-801
# [3] = NIH3T3 cell strain, read-out: IC50 NIH3T3
# [4] = Hela cell strain, read-out: IC50 Hela
# [5] = Lovo cell strain, read-out: IC50 Lovo
# [6] = BGC823 cell strain, read-out: IC50 BGC823
# [7] = HepG2 cell strain, read-out: IC50 HepG2
smiles,measurement,setting,value
"Nc1cc2c(cn1)[nH]c1ccccc12 [Compound 21, 3-amino-β-carboline]",IC50,"Bel-7402; Homo sapiens, Bel-7402, BeI7402, MTT, read-out: IC50",1570 µM
same,IC50,"PLA-801; PLA-801, MTT, read-out: IC50",570 µM
same,IC50,"NIH3T3; Mus musculus, NIH3T3, MTT, read-out: IC50",290 µM
same,IC50,"Hela; Homo sapiens, Hela, MTT, read-out: IC50",310 µM
same,IC50,"Lovo; Homo sapiens, Lovo, MTT, read-out: IC50",240 µM
same,IC50,"BGC-823; Homo sapiens, BGC-823, BGC823, MTT, read-out: IC50",860 µM
same,IC50,"HepG2; Homo sapiens, HepG2, MTT, read-out: IC50",340 µM
"CCOC(=O)c1cc2c3ccccc3n(Cc3c(F)c(F)c(F)c(F)c3F)c2cn1 [Compound 46, ethyl 9-(2′,3′,4′,5′,6′-pentafluoro)benzyl-β-carboline-3-carboxylate]",IC50,Bel-7402; [1],10 µM
same,IC50,PLA-801; [2],50 µM
same,IC50,NIH3T3; [3],60 µM
same,IC50,Hela; [4],980 µM
same,IC50,Lovo; [5],40 µM
same,IC50,BGC-823; [6],50 µM
same,IC50,HepG2; [7],120 µM
"CCOC(=O)c1cc2c3ccccc3n(CC(=O)c3ccccc3)c2cn1 [Compound 47, ethyl 9-acetophenone-β-carboline-3-carboxylate]",IC50,Bel-7402; [1],1020 µM
same,IC50,PLA-801; [2],> 3000 µM
same,IC50,NIH3T3; [3],> 3000 µM
same,IC50,Hela; [4],> 3000 µM
same,IC50,Lovo; [5],> 3000 µM
same,IC50,BGC-823; [6],> 3000 µM
same,IC50,HepG2; [7],> 3000 µM
"CCn1c2ccccc2c2cc(C(=O)NN)ncc21 [Compound 51, 3-carbohydrazine 9-ethyl-β-carboline]",IC50,Bel-7402; [1],370 µM
same,IC50,PLA-801; [2],510 µM
same,IC50,NIH3T3; [3],510 µM
same,IC50,Hela; [4],240 µM
same,IC50,Lovo; [5],190 µM
same,IC50,BGC-823; [6],110 µM
same,IC50,HepG2; [7],260 µM
"NNC(=O)c1cc2c3ccccc3n(Cc3ccccc3)c2cn1 [Compound 52, 3-carbohydrazide-9-benzyl-β-carboline]",IC50,Bel-7402; [1],60 µM
same,IC50,PLA-801; [2],520 µM
same,IC50,NIH3T3; [3],220 µM
same,IC50,Hela; [4],250 µM
same,IC50,Lovo; [5],250 µM
same,IC50,BGC-823; [6],270 µM
same,IC50,HepG2; [7],140 µM
"CCOC(=O)c1cc2c3ccccc3n(CC(=O)c3ccccc3)c2c(C)n1 [Compound 61, ethyl 9-acetophenone-1-methyl-β-carboline-3-carboxylate]",IC50,Bel-7402; [1],460 µM
same,IC50,PLA-801; [2],160 µM
same,IC50,NIH3T3; [3],90 µM
same,IC50,Hela; [4],60 µM
same,IC50,Lovo; [5],50 µM
same,IC50,BGC-823; [6],90 µM
same,IC50,HepG2; [7],70 µM
"CCCc1nc(C(=O)O)cc2c3ccccc3n(CCCc3ccccc3)c12 [Compound 75, 9-phenylpropyl-1-propyl-β-carboline-3-carboxylic acid]",IC50,"Bel-7402; Homo sapiens, Bel-7402, Bel7402 cell strain, read-out: IC50 Bel7402",200 µM
same,IC50,PLA-801; [2],230 µM
same,IC50,"NIH3T3; Mus musculus, NIH3T3 cell strain, read-out: IC50 NIH3T3",110 µM
same,IC50,"Hela; Homo sapiens, Hela cell strain, read-out: IC50 Hela",140 µM
same,IC50,"Lovo; Homo sapiens, Lovo cell strain, read-out: IC50 Lovo",80 µM
same,IC50,"BGC-823; Homo sapiens, BGC-823, BGC823 cell strain, read-out: IC50 BGC823",240 µM
same,IC50,"HepG2; Homo sapiens, HepG2 cell strain, read-out: IC50 HepG2",130 µM
"CCOC(=O)c1cc2c3ccccc3n(Cc3ccccc3)c2c[n+]1Cc1ccccc1.[O-][I+2]([O-])[O-] [Compound 85, 2,9-dibenzyl-3-ethoxycarbonyl-β-carbolinium iodate]",IC50,Bel-7402; [1],40 µM
same,IC50,PLA-801; [2],30 µM
same,IC50,NIH3T3; [3],20 µM
same,IC50,Hela; [4],30 µM
same,IC50,Lovo; [5],30 µM
same,IC50,BGC-823; [6],40 µM
same,IC50,HepG2; [7],20 µM
"O=P1(N(CCCl)CCCl)NCCCO1 (centres unmarked) [cyclophosphamide, reference compound]","Body weight of the animals, beginning, First time",S180 sarcoma; first time,19.4 g and 18.7 g
same,"Body weight of the animals, end, First time",S180 sarcoma; first time,20.9 g and 22.3 g
same,"Weight of the tumor X ± SD, First time",S180 sarcoma; first time,0.33 ± 0.14 g and 0.33 ± 0.12 g
same,"Body weight of the animals, beginning, Second time",S180 sarcoma; second time,19.8 g and 20.3 g
same,"Body weight of the animals, end, Second time",S180 sarcoma; second time,23.2 g and 20.9 g
same,"Body weight of the animals, end, First time","Lewis lung cancer; Dosage 30 (mg/ml), Iv × 7qd, first time",21.3 g and 20.2 g
same,"Body weight of the animals, end, Second time","Lewis lung cancer; Dosage 30 (mg/ml), Iv × 7qd, second time",21.3 g and 21.0 g
same,"Body weight of the animals, beginning, First time","Lewis lung cancer; Dosage 30, Iv × 7qd, first time",20.1 g and 18.8 g
same,"Body weight of the animals, beginning, Second time","Lewis lung cancer; Dosage 30, Iv × 7qd, second time",18.9 g and 19.8 g
